The values that follow come from US8017638B2, “Isoxazole derivative and isothiazole derivative having inhibitory activity on 11β-hydroxysteroid dehydrogenase type 1” (Shionogi & Co., Ltd., priority 2006, dated 2011).

Assay [1] addresses recombinant human 11β-HSD1 (Homo sapiens, UniProt P28845). Put plainly: Enzyme activity assay on human 11β-HSD1 (HTRF, cortisol production). Type of assay: biochemical. The note with it: recombinant human 11β-HSD1, 5 μM cortisone as substrate, 2 hours at 37° C., read-out: humanIC50. As to the method: Evaluation of 11β-HSD1 Inhibitors (Enzyme Activity Assay on Human 11β-HSD1)
Enzymatic activity for human 11β-HSD1 was determined in a 10 μl final volume of assay mixture containing 50 mM sodium phosphate buffer (pH 7.6), 1 mg/ml bovine serum albumin, 0.42 mg/ml NADPH, 1.26 mg/ml glucose-6-phosphate, glucose-6-phosphate dehydrogenase, test compound, recombinant human 11β-HSD1, and 5 μM cortisone as substrate. The reaction was started with the addition of cortisone. After incubation for 2 hours at 37° C., 5 μl of europium cryptate-labelled anti-cortisol antibody and 5 μl of XL665-labeled cortisol were added. After further incubation for 2 hours at room temperature, the homogeneous time-resolved fluorescence (HTRF) signal was measured. The cortisol production was quantitated by a standard curve generated with several known concentrations of cortisol in each assay.
The amount of cortisol production without compounds served as control, and the percent inhibition by test compound at each concentration was calculated. The IC50 value of the compound for 11β-HSD1 was obtained using the inhibition curve generated by plotting the percent inhibition versus the concentration of test compound.
In general terms: In TR-FRET formats the signal depends on donor and acceptor labels being close together.

In assay [2] the target is recombinant mouse 11β-HSD1 (Mus musculus, UniProt P50172). Put plainly: Enzyme activity assay on mouse 11β-HSD1 (HTRF, corticosterone production). Type of assay: biochemical. The note with it: recombinant mouse 11β-HSD1, 2 μM 11-dehydrocorticosterone as substrate, 2 hours at 37° C., read-out: mouseIC50. As to the method:
Evaluation of 11β-HSD1 Inhibitors (Enzyme Activity Assay on Mouse 11β-HSD1)
Enzymatic activity for mouse 11β-HSD1 activity was determined in a 10 μl final volume of assay mixture containing 50 mM sodium phosphate buffer (pH 7.6), 1 mg/ml bovine serum albumin, 0.42 mg/ml NADPH, 1.26 mg/ml glucose-6-phosphate, glucose-6-phosphate dehydrogenase, test compound, recombinant mouse 11β-HSD1, and 2 μM 11-dehydrocorticosterone as substrate. The reaction was started with the addition of 11-dehydrocorticosterone. After incubation for 2 hours at 37° C., 5 μl of europium cryptate-labelled anti-cortisol antibody and 5 μl of XL665-labeled cortisol were added. After further incubation for 2 hours at room temperature, the HTRF signal was measured. The corticosterone production was quantitated by a standard curve generated with several known concentrations of corticosterone in each assay.
The amount of corticosterone production without compounds served as control, and the percent inhibition by compound at each concentration was calculated. The IC50 value of the compound for 11β-HSD1 was obtained using the inhibition curve generated by plotting the percent inhibition versus the concentration of test compound.

Chain of recombinant mouse 11β-HSD1 (P50172 whole entry): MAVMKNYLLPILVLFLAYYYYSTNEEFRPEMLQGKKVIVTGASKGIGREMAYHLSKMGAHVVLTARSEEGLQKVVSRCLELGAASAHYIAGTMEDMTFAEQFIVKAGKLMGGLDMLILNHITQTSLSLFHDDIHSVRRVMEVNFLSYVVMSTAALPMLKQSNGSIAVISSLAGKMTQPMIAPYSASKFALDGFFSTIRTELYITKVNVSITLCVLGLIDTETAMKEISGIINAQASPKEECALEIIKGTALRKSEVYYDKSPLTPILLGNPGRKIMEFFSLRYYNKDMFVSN
Chain of recombinant human 11β-HSD1 (P28845 whole entry): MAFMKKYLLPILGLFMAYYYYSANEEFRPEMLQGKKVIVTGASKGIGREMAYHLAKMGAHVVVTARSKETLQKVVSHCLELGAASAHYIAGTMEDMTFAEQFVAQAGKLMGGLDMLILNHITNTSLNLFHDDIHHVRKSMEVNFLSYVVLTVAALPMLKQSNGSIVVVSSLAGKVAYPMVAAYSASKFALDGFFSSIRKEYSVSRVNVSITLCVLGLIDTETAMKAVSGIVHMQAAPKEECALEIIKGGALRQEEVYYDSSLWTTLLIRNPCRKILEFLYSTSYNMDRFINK

`CCCSc1c(OCC2CCNCC2)noc1C(=O)NC1C2CC3CC(C2)CC1C3` (stereo not drawn) [Compound 9c]: the IC50 in assay [1] was determined as 180 nM; in assay [2], 500 nM.

For the molecule `CC(C)Sc1c(OCC2CCNCC2)noc1C(=O)NC1C2CCCC1CCC2` (stereo not drawn) [Compound 12b], the figures for the IC50 in assay [1] and in assay [2] were 140 nM and 1600 nM, respectively.

For `CC(C)Sc1c(OCC(C)(C)NC(=O)NCCN)noc1C(=O)NC1C2CC3CC(C2)CC1C3` (stereo not drawn) [Compound 27], the values for the IC50 in assay [1] and in assay [2] were 260 nM and 38 nM, respectively.

As to `CC(C)Sc1c(OCC(C)(C)N)noc1C(=O)NC1C2CC3CC(C2)CC1C3` (stereo not drawn) [Compound 29], the IC50 in assay [1] was determined as 43 nM; in assay [2], 330 nM.

For `CC(C)Sc1c(OCC(C)(C)C(=O)N2CCNCC2)noc1C(=O)NC1C2CC3CC(C2)CC1C3` (stereo not drawn) [II-18], the IC50 came to 35 nM in assay [1] and 49 nM in assay [2].

With `CC(C)Sc1c(OCC(F)(F)C(=O)NCCN)noc1C(=O)NC1C2CC3CC(C2)CC1C3` (stereo not drawn) [II-25], the figures for the IC50 in assay [1] and in assay [2] were 51 nM and 160 nM, respectively.

On to `CC(C)Sc1c(OCC(C)(C)NC(=O)C2(N)CC2)noc1C(=O)NC1C2CC3CC(C2)CC1C3` (stereo not drawn) [II-49], for which the IC50 in assay [1] was 71 nM; in assay [2], 23 nM.

As to `CC(C)CSc1c(OCC(C)(C)CCCN)noc1C(=O)NC1C2CC3CC(C2)CC1C3` (stereo not drawn) [II-72], the IC50 in assay [1] was determined as 77 nM; in assay [2], 6.5 nM.

For the molecule `COCC(C)(C)COc1noc(C(=O)NC2C3CC4CC(C3)CC2C4)c1SC(C)C` (stereo not drawn) [II-117], the IC50 is 95 nM in assay [1] and 21 nM in assay [2].

On to `CC(C)Sc1c(OCC(C)(C)C#N)noc1C(=O)N[C@H]1C2CC3CC1C[C@](O)(C3)C2` [II-130], for which the IC50 in assay [1] is 86 nM; in assay [2] it was 33 nM.

For the molecule `O=C(NC1(COc2noc(C(=O)N[C@H]3C4CC5CC3C[C@](O)(C5)C4)c2SC2CCCC2)CC1)c1ccc(Cl)cc1Cl` [II-150], the IC50 worked out at 10 nM in assay [1] and 27 nM in assay [2].

Regarding `CC(C)(COc1noc(C(=O)N[C@H]2C3CC4CC2C[C@](O)(C4)C3)c1SC1CCCC1)N1CCOC1=O` [II-153], the results for the IC50 in assay [1] and in assay [2] were 25 nM and 14 nM, respectively.
